Data as given in article PMC7531004, “Discovery of gramicidin A analogues with altered activities by multidimensional screening of a one-bead-one-compound library” (Nature Communications, 2020).
Where a SMILES comes first, the peptide text is derived from it. [ ]: non-standard residue; d: D form. The star is where a group is joined. NHCH2CH2OH = OCCN*; For = O=C*

Tests used:
[1] = test system: P388 mouse leukemia cells; conditions: 92 h
Method in brief: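 Peptide stocks diluted 250× in growth medium; P388 cells 1 × 10^4 cells/mL final; 37 °C, 5% CO2, 92 h. WST-1 + 1-methoxy PMS, 4 h, A415. Output: % viability.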

[2] = H+/Na+ transport assay of bead-derived peptides (one-point); assay type: biochemical; parameters: key: relative activity; mean of two control wells = 1.00; conditions: bead-derived peptide solution, EYPC/EYPG LUVs;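 also: relative to parent gramicidin A activity set to 1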
Method in brief: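 Values are normalized fluorescence, with Triton X-100 defining 100% and untreated LUVs 0%, and the two control wells averaging 1.00. Vesicles carried 1.0 mM pyranine and included egg yolk phosphatidylglycerol. Peptides were incubated with them 30 min at room temperature.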

[3] = test system: Streptococcus pyogenes SSI-9; assay: Antibacterial activity assay of bead-derived peptides (three concentrations); assay type: cell-based; parameters: key: +++: inhibition by the 640-fold diluted peptide solution; ++: inhibition by the 160-fold diluted solution; +: inhibition by the 40-fold diluted solution; -: no inhibition; conditions: S. pyogenes, bead-derived peptide solution, three concentrations
Method in brief: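 First, each peptide stock was diluted 4- and 16-fold in DMSO; next, the three solutions were mixed with S. pyogenes SSI-9 suspension (2 × 10^5 CFU) in cation-adjusted Mueller Hinton Broth plus 5% laked horse blood; finally, plates stood 18 h at 37 °C before checking for grown-cell precipitation.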

Row | SMILES | cell viability/% [1] | H+/Na+ transport activity normalized against the value of 1 (1.00) [2] | antibacterial activity [3]
1 | CC(C)C[C@@H](NC(=O)[C@H](C)NC(=O)CNC(=O)[C@@H](NC=O)C(C)C)C(=O)N[C@@H](C)C(=O)N[C@H](CC(C)C)C(=O)N[C@H](C(=O)N[C@H](CC(C)C)C(=O)N[C@@H](Cc1c[nH]c2ccccc12)C(=O)N[C@@H](C(=O)N[C@@H](Cc1c[nH]c2ccccc12)C(=O)N[C@@H](C(=O)N[C@@H](Cc1c[nH]c2ccccc12)C(=O)N[C@H](CC(C)C)C(=O)N[C@@H](Cc1c[nH]c2ccccc12)C(=O)NCCO)C(C)C)[C@H](C)O)C(C)C [compound 10442] (For-VGA[dL]A[dL]V[dL]W[dT]W[dV]W[dL]W-NHCH2CH2OH) | 100.0% | 1.15 | -
2 | CC(C)C[C@@H](NC(=O)[C@H](C)NC(=O)[C@H](NC(=O)[C@H](C)NC(=O)CNC(=O)[C@@H](NC=O)C(C)C)[C@H](C)O)C(=O)N[C@H](C(=O)N[C@@H](C(=O)N[C@@H](Cc1c[nH]c2ccccc12)C(=O)N[C@@H](C(=O)N[C@@H](Cc1c[nH]c2ccccc12)C(=O)N[C@H](CC(C)C)C(=O)N[C@@H](Cc1c[nH]c2ccccc12)C(=O)N[C@@H](C(=O)N[C@@H](Cc1c[nH]c2ccccc12)C(=O)NCCO)C(C)C)C(C)C)C(C)C)C(C)C [compound 8687] (For-VGA[dT]A[dL]V[dV]W[dV]W[dL]W[dV]W-NHCH2CH2OH) | 66.9% | 1.15 | -
3 | CC(C)C[C@@H](NC(=O)[C@H](C)NC(=O)CNC(=O)[C@@H](NC=O)C(C)C)C(=O)N[C@@H](C)C(=O)N[C@H](CC(C)C)C(=O)N[C@H](C(=O)N[C@H](CC(C)C)C(=O)N[C@@H](Cc1c[nH]c2ccccc12)C(=O)N[C@@H](C(=O)N[C@@H](Cc1c[nH]c2ccccc12)C(=O)N[C@@H](C(=O)N[C@@H](Cc1c[nH]c2ccccc12)C(=O)N[C@@H](C(=O)N[C@@H](Cc1c[nH]c2ccccc12)C(=O)NCCO)C(C)C)[C@H](C)O)C(C)C)C(C)C [compound 5178] (For-VGA[dL]A[dL]V[dL]W[dV]W[dT]W[dV]W-NHCH2CH2OH) | 100.0% | 1.22 | -
4 | CC(C)C[C@@H](NC(=O)[C@H](C)NC(=O)CNC(=O)[C@@H](NC=O)C(C)C)C(=O)N[C@@H](C)C(=O)N[C@H](CC(C)C)C(=O)N[C@H](C(=O)N[C@H](CC(C)C)C(=O)N[C@@H](Cc1c[nH]c2ccccc12)C(=O)N[C@@H](C(=O)N[C@@H](Cc1c[nH]c2ccccc12)C(=O)N[C@H](CC(C)C)C(=O)N[C@@H](Cc1c[nH]c2ccccc12)C(=O)N[C@@H](C(=O)N[C@@H](Cc1c[nH]c2ccccc12)C(=O)NCCO)C(C)C)C(C)C)C(C)C [compound 6096] (For-VGA[dL]A[dL]V[dL]W[dV]W[dL]W[dV]W-NHCH2CH2OH) | 7.3% | 1.16 | +
5 | CNC(=O)C[C@@H](NC(=O)[C@H](Cc1c[nH]c2ccccc12)NC(=O)[C@H](NC(=O)[C@@H](NC(=O)[C@@H](CC(C)C)NC(=O)[C@H](C)NC(=O)[C@@H](CC(C)C)NC(=O)[C@H](C)NC(=O)CNC(=O)[C@@H](NC=O)C(C)C)C(C)C)C(C)C)C(=O)N[C@@H](Cc1c[nH]c2ccccc12)C(=O)N[C@H](CC(C)C)C(=O)N[C@@H](Cc1c[nH]c2ccccc12)C(=O)N[C@@H](C(=O)N[C@@H](Cc1c[nH]c2ccccc12)C(=O)NCCO)C(C)C [compound 5091] (For-VGA[dL]A[dL]V[dV]W[dD](NHMe)W[dL]W[dV]W-NHCH2CH2OH) | 100.0% | 1.05 | +
6 | CC(C)[C@H](NC=O)C(=O)NCC(=O)N[C@@H](C)C(=O)N[C@@H](C(=O)N[C@@H](C)C(=O)N[C@@H](C(=O)N[C@H](C(=O)N[C@@H](C(=O)N[C@@H](Cc1c[nH]c2ccccc12)C(=O)N[C@@H](C(=O)N[C@@H](Cc1c[nH]c2ccccc12)C(=O)N[C@@H](C(=O)N[C@@H](Cc1c[nH]c2ccccc12)C(=O)N[C@@H](C(=O)N[C@@H](Cc1c[nH]c2ccccc12)C(=O)NCCO)C(C)C)C(C)C)C(C)C)C(C)C)C(C)C)C(C)C)[C@H](C)O [compound 11453] (For-VGA[dT]A[dV]V[dV]W[dV]W[dV]W[dV]W-NHCH2CH2OH) | 49.2% | 1.04 | -
7 | CC(C)C[C@@H](NC(=O)[C@H](C)NC(=O)CNC(=O)[C@@H](NC=O)C(C)C)C(=O)N[C@@H](C)C(=O)N[C@@H](C(=O)N[C@H](C(=O)N[C@H](CC(C)C)C(=O)N[C@@H](Cc1c[nH]c2ccccc12)C(=O)N[C@@H](C(=O)N[C@@H](Cc1c[nH]c2ccccc12)C(=O)N[C@H](CC(C)C)C(=O)N[C@@H](Cc1c[nH]c2ccccc12)C(=O)N[C@H](CC(C)C)C(=O)N[C@@H](Cc1c[nH]c2ccccc12)C(=O)NCCO)C(C)C)C(C)C)C(C)C [compound 8464] (For-VGA[dL]A[dV]V[dL]W[dV]W[dL]W[dL]W-NHCH2CH2OH) | 4.1% | 1.23 | -
8 | CC(C)C[C@@H](NC(=O)[C@H](C)NC(=O)CNC(=O)[C@@H](NC=O)C(C)C)C(=O)N[C@@H](C)C(=O)N[C@H](CC(C)C)C(=O)N[C@H](C(=O)N[C@@H](C(=O)N[C@@H](Cc1c[nH]c2ccccc12)C(=O)N[C@@H](C(=O)N[C@@H](Cc1c[nH]c2ccccc12)C(=O)N[C@@H](C(=O)N[C@@H](Cc1c[nH]c2ccccc12)C(=O)N[C@@H](C(=O)N[C@@H](Cc1c[nH]c2ccccc12)C(=O)NCCO)C(C)C)C(C)C)C(C)C)C(C)C)C(C)C [compound 7100] (For-VGA[dL]A[dL]V[dV]W[dV]W[dV]W[dV]W-NHCH2CH2OH) | 100.0% | 1.07 | -
9 | CC(C)C[C@@H](NC(=O)[C@H](C)NC(=O)CNC(=O)[C@@H](NC=O)C(C)C)C(=O)N[C@@H](C)C(=O)N[C@H](CC(C)C)C(=O)N[C@H](C(=O)N[C@@H](C(=O)N[C@@H](Cc1c[nH]c2ccccc12)C(=O)N[C@@H](C(=O)N[C@@H](Cc1c[nH]c2ccccc12)C(=O)N[C@@H](C(=O)N[C@@H](Cc1c[nH]c2ccccc12)C(=O)N[C@@H](C(=O)N[C@@H](Cc1c[nH]c2ccccc12)C(=O)NCCO)C(C)C)[C@H](C)O)C(C)C)C(C)C)C(C)C [compound 2887] (For-VGA[dL]A[dL]V[dV]W[dV]W[dT]W[dV]W-NHCH2CH2OH) | 99.0% | 1.01 | -
10 | CC(C)C[C@@H](NC(=O)[C@H](Cc1c[nH]c2ccccc12)NC(=O)[C@H](NC(=O)[C@H](Cc1c[nH]c2ccccc12)NC(=O)[C@H](NC(=O)[C@H](Cc1c[nH]c2ccccc12)NC(=O)[C@H](NC(=O)[C@@H](NC(=O)[C@H](NC(=O)[C@H](C)NC(=O)[C@H](NC(=O)[C@H](C)NC(=O)CNC(=O)[C@@H](NC=O)C(C)C)C(C)C)[C@H](C)O)C(C)C)C(C)C)C(C)C)C(C)C)C(=O)N[C@@H](Cc1c[nH]c2ccccc12)C(=O)NCCO [compound 9058] (For-VGA[dV]A[dT]V[dV]W[dV]W[dV]W[dL]W-NHCH2CH2OH) | 58.0% | 1.14 | -
11 | CNC(=O)C[C@@H](NC(=O)[C@@H](NC(=O)[C@H](NC(=O)[C@H](C)NC(=O)[C@@H](CC(C)C)NC(=O)[C@H](C)NC(=O)CNC(=O)[C@@H](NC=O)C(C)C)C(C)C)C(C)C)C(=O)N[C@@H](Cc1c[nH]c2ccccc12)C(=O)N[C@@H](C(=O)N[C@@H](Cc1c[nH]c2ccccc12)C(=O)N[C@H](CC(C)C)C(=O)N[C@@H](Cc1c[nH]c2ccccc12)C(=O)N[C@@H](C(=O)N[C@@H](Cc1c[nH]c2ccccc12)C(=O)NCCO)C(C)C)C(C)C [compound 5778] (For-VGA[dL]A[dV]V[dD](NHMe)W[dV]W[dL]W[dV]W-NHCH2CH2OH) | 77.8% | 1.19 | -
12 | CC(C)C[C@@H](NC(=O)[C@H](C)NC(=O)CNC(=O)[C@@H](NC=O)C(C)C)C(=O)N[C@@H](C)C(=O)N[C@H](CC(C)C)C(=O)N[C@H](C(=O)N[C@@H](C(=O)N[C@@H](Cc1c[nH]c2ccccc12)C(=O)N[C@@H](C(=O)N[C@@H](Cc1c[nH]c2ccccc12)C(=O)N[C@@H](C(=O)N[C@@H](Cc1c[nH]c2ccccc12)C(=O)N[C@@H](C(=O)N[C@@H](Cc1c[nH]c2ccccc12)C(=O)NCCO)C(C)C)C(C)C)C(C)C)C(C)C)C(C)C [compound 7845] (For-VGA[dL]A[dL]V[dV]W[dV]W[dV]W[dV]W-NHCH2CH2OH) | 100.0% | 1.04 | +
13 | CNC(=O)C[C@@H](NC(=O)[C@@H](NC(=O)[C@H](NC(=O)[C@H](C)NC(=O)[C@H](NC(=O)[C@H](C)NC(=O)CNC(=O)[C@@H](NC=O)C(C)C)C(C)C)C(C)C)C(C)C)C(=O)N[C@@H](Cc1c[nH]c2ccccc12)C(=O)N[C@H](CC(C)C)C(=O)N[C@@H](Cc1c[nH]c2ccccc12)C(=O)N[C@@H](C(=O)N[C@@H](Cc1c[nH]c2ccccc12)C(=O)N[C@@H](C(=O)N[C@@H](Cc1c[nH]c2ccccc12)C(=O)NCCO)C(C)C)C(C)C [compound 8057] (For-VGA[dV]A[dV]V[dD](NHMe)W[dL]W[dV]W[dV]W-NHCH2CH2OH) | 100.0% | 1.13 | -
